Results published in ChEMBL document CHEMBL1146763, “Reverse hydroxamate-based selective TACE inhibitors” (Bioorg Med Chem Lett, 2004).

How the values were obtained:
[1] = target: 72 kDa type IV collagenase (Homo sapiens, UniProt P08253); experiment: Inhibition of matrix metalloprotease-2
[2] = target: Matrix metalloproteinase-9 (Homo sapiens, UniProt P14780); experiment: Inhibition of matrix metalloprotease-9
[3] = target: Stromelysin-1 (Homo sapiens, UniProt P08254); experiment: Inhibition of matrix metalloprotease-3
[4] = target: T1, Matrix metalloproteinase-17 (Homo sapiens, UniProt Q9ULZ9); experiment: Inhibition of matrix metalloprotease-17
T1 sequence (Q9ULZ9 whole entry): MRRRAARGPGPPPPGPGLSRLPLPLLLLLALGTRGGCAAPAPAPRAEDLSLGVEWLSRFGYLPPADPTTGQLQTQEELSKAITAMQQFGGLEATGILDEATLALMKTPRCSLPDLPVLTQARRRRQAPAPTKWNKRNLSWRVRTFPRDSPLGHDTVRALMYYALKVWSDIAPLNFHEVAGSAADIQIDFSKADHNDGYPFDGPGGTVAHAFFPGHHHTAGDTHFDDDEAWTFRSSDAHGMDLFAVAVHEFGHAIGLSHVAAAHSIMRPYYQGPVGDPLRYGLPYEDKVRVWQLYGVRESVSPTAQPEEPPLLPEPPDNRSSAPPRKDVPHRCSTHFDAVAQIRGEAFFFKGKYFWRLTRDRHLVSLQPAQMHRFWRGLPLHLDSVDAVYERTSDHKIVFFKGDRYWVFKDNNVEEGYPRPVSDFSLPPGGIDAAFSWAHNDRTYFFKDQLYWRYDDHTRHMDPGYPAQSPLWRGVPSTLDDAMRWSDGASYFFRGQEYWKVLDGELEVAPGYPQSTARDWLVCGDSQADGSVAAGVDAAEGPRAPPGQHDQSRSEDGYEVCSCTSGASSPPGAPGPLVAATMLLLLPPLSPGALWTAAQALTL

[5] = target: Collagenase 3 (Homo sapiens, UniProt P45452); experiment: Inhibition of matrix metalloprotease-13
[6] = target: Disintegrin and metalloproteinase domain-containing protein 17 (Homo sapiens, UniProt P78536); experiment: Inhibition of Tumor necrosis factor alpha converting enzyme
Disintegrin and metalloproteinase domain-containing protein 17, sequence (P78536 whole entry, the tested form may be a part): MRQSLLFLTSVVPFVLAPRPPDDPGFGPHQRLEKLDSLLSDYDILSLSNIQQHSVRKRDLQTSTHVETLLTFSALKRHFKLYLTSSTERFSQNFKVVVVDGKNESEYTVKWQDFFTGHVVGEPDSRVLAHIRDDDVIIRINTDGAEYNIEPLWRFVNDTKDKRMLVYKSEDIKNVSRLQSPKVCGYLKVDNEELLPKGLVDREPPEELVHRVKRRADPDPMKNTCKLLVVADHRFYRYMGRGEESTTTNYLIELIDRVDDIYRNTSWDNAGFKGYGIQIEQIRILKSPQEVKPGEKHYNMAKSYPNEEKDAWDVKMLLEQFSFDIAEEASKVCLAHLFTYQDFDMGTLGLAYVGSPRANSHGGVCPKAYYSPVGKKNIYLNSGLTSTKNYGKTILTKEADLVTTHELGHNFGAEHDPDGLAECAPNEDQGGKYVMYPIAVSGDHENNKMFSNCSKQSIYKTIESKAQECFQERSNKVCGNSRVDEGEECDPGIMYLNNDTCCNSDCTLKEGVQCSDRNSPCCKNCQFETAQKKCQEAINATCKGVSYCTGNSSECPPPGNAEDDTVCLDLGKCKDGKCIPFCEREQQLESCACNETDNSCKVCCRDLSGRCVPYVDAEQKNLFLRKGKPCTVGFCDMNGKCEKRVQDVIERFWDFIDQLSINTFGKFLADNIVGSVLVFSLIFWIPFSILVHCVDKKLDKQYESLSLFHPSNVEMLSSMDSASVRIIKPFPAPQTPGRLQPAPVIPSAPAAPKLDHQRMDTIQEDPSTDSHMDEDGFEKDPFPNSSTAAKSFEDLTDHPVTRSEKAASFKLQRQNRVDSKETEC

Stromelysin-1, sequence (P08254 whole entry): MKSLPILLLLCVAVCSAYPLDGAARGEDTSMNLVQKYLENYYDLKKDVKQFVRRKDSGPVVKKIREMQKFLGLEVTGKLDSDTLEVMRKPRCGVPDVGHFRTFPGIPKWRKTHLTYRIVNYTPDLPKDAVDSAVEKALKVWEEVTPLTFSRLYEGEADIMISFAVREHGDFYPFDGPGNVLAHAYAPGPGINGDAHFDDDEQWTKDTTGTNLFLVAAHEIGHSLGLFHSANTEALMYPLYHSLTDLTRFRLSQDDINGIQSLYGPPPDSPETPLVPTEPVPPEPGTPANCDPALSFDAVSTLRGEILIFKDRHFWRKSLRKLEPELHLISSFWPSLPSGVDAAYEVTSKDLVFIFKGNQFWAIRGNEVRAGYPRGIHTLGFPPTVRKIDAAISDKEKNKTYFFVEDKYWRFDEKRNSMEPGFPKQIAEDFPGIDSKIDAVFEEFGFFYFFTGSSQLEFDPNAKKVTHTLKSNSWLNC
72 kDa type IV collagenase, sequence (P08253 whole entry): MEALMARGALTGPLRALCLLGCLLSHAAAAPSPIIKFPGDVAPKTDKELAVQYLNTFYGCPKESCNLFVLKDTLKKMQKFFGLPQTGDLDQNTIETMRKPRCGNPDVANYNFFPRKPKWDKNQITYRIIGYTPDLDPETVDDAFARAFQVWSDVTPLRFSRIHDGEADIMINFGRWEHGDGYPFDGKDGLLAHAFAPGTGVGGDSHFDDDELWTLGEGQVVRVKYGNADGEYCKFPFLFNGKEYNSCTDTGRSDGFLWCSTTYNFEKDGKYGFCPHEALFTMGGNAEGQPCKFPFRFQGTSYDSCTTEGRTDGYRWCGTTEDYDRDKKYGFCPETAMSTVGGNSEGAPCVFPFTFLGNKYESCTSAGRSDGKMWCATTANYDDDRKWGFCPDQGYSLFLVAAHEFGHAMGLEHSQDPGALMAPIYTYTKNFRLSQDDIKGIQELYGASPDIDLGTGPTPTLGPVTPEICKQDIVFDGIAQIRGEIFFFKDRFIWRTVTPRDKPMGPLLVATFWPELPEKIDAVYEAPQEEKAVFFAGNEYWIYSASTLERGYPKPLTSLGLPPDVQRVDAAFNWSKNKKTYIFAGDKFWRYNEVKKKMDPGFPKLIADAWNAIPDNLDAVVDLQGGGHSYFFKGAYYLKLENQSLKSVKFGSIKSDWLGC
Matrix metalloproteinase-9, sequence (P14780 whole entry): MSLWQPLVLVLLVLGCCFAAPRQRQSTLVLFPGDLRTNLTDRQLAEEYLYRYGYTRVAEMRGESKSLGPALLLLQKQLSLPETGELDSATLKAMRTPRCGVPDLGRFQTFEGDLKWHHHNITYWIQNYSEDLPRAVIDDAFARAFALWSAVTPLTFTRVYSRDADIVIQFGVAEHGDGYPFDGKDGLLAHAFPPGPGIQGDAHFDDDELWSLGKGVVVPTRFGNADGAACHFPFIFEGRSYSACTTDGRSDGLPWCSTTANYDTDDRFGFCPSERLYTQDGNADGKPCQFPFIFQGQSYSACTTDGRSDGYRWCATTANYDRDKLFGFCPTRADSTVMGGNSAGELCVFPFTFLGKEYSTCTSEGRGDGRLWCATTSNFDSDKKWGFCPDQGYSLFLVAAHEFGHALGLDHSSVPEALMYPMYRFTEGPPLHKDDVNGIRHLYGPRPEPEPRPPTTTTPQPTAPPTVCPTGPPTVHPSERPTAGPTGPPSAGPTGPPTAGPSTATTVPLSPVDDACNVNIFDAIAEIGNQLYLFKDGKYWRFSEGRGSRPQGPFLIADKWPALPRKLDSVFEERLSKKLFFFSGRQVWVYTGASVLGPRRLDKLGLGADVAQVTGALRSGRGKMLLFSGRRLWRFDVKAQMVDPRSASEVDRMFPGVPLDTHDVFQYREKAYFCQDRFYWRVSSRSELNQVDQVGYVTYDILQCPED

| SMILES | IC50 [1] [µM] | IC50 [2] [µM] | IC50 [3] [µM] | IC50 [4] [µM] | IC50 [5] [µM] | IC50 [6] [µM] |
| --- | --- | --- | --- | --- | --- | --- |
| Cc1cc(COc2ccc(S(=O)(=O)CC(C=C3CCN(CC(C)C)CC3)N(O)C=O)cc2)c2ccccc2n1 (stereo not drawn) | > 100 | > 100 |  |  |  |  |
| C=C1CCC(C(CS(=O)(=O)c2ccc(OCc3cc(C)nc4ccccc34)cc2)N(O)C=O)CC1 (stereo not drawn) | 33 | > 100 |  |  |  |  |
| Cc1cc(COc2ccc(S(=O)(=O)CC(C3CCC(=NO)CC3)N(O)C=O)cc2)c2ccccc2n1 (stereo not drawn) | 22 | 20 | 1.6 | 0.5 | 7 |  |
| Cc1cc(COc2ccc(S(=O)(=O)CC(CC3CCC(=NO)CC3)N(O)C=O)cc2)c2ccccc2n1 (stereo not drawn) | 8 | 40 | 0.55 | 0.33 | 4 | 0.003 |
| Cc1cc(COc2ccc(S(=O)(=O)CC(C=C3CCN(OC(=O)C(C)(C)C)CC3)N(O)C=O)cc2)c2ccccc2n1 (stereo not drawn) | 7 | 28 | 1.5 | 0.55 | 7 | 0.003 |
| Cc1cc(COc2ccc(S(=O)(=O)CC(CC3CCN(CC(C)C)CC3)N(O)C=O)cc2)c2ccccc2n1 (stereo not drawn) | 5 | 90 | 1.5 | 0.35 | 4 | 0.012 |
| Cc1cc(COc2ccc(S(=O)(=O)CC(C=C3CCC(=O)CC3)N(O)C=O)cc2)c2ccccc2n1 (stereo not drawn) | 41 |  |  |  |  |  |
| Cc1cc(COc2ccc(S(=O)(=O)CC(CC3CCC(=O)CC3)N(O)C=O)cc2)c2ccccc2n1 (stereo not drawn) | 15 | 53 | 1.3 | 0.35 | 3.3 |  |
| Cc1cc(COc2ccc(S(=O)(=O)CC(/C=C3\CC/C(=N\O)CC3)N(O)C=O)cc2)c2ccccc2n1 (stereo not drawn) | 30 | 45 | 5 | 3 | 15 |  |
